Assay results reported in ChEMBL document CHEMBL1137581, “Synthesis of 1-deoxy-1-hydroxymethyl- and 1-deoxy-1-epi-hydroxymethyl castanospermine as new potential immunomodulating agents” (2007).
Activity calls are given as the source filed them. The calls are words filed in the database; no cut-off is given here.

Columns and labels:
[1] = target: Mannosyl-oligosaccharide 1,2-alpha-mannosidase IA (Homo sapiens) (UniProt P33908); assay: Inhibition of human alpha mannosidase
[2] = target: T1, Alpha-galactosidase A (Homo sapiens) (UniProt P06280); assay: Inhibition of human alpha galactosidase
T1 sequence (whole entry): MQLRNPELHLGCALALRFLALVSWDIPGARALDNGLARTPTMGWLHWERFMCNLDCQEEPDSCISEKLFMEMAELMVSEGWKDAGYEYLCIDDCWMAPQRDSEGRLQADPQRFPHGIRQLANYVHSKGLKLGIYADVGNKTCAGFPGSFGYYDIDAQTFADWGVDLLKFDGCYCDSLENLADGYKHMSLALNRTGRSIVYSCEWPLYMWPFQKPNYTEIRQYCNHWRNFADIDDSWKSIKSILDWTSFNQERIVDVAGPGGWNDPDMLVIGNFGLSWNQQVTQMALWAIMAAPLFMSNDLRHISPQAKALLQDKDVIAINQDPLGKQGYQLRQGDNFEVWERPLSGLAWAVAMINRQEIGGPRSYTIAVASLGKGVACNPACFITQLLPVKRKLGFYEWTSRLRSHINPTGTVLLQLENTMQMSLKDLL

[3] = target: T2, Neutral alpha-glucosidase AB (Homo sapiens) (UniProt Q14697); assay: Inhibition of human alpha glucosidase
T2 sequence (whole entry): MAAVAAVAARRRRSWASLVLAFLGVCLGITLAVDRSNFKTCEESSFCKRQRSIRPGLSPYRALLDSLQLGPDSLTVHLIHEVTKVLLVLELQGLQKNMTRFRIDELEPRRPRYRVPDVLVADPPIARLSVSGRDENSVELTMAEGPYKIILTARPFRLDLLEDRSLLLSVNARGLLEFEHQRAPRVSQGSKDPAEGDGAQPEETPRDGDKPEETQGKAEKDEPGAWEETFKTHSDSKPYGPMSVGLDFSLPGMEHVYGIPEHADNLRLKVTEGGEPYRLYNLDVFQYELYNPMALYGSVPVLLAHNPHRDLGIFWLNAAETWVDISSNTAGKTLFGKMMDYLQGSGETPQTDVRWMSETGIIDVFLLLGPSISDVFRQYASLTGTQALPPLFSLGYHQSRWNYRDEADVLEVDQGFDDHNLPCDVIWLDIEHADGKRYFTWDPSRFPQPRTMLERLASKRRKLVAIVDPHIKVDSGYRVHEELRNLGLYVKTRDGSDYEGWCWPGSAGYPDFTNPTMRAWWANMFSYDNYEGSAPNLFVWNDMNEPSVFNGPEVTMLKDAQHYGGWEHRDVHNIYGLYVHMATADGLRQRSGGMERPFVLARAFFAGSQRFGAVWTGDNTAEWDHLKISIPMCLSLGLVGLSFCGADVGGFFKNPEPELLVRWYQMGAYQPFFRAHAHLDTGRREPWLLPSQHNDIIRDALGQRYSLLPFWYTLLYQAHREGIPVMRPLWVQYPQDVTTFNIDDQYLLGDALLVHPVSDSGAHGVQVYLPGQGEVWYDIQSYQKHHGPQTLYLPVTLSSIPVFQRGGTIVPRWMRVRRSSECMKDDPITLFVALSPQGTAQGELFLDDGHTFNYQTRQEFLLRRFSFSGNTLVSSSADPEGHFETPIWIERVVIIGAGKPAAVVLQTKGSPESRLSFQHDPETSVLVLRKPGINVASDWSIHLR

Homo sapiens [4] = organism: Homo sapiens; assay: Inhibition of human beta glucosidase
Homo sapiens [5] = organism: Homo sapiens; assay: Inhibition of human beta galactosidase
[6] = Enhancement of ConA-induced proliferation in Swiss Albino mouse splenocyte at 5 uM after 72 hrs by MTT assay relative to control; type: functional
[7] = Enhancement of ConA-induced proliferation in Swiss Albino mouse splenocyte at 10 uM after 72 hrs by MTT assay relative to control; type: functional
[8] = Enhancement of ConA-induced proliferation in Swiss Albino mouse splenocyte at 20 uM after 72 hrs by MTT assay relative to control; type: functional
[9] = (§1) Enhancement of ConA-induced proliferation in Swiss Albino mouse splenocyte at 75 uM after 72 hrs by MTT assay relative to control; type: functional
[10] = Enhancement of ConA-induced proliferation in Swiss Albino mouse splenocyte at 100 uM after 72 hrs by MTT assay relative to control; type: functional
[11] = Reduction of ConA-induced IL4 secretion in Swiss Albino mouse splenocytes by ELISA relative to control; type: functional, Splenocyte; design: scale not given: the % may be the effect or the level left
[12] = Enhancement of ConA-induced IL6 secretion in Swiss Albino mouse splenocytes by ELISA relative to control; type: functional, Splenocyte
[13] = Enhancement of ConA-induced IFN-gamma secretion in Swiss Albino mouse splenocytes by ELISA relative to control; type: functional, Splenocyte
[14] = Enhancement of ConA-induced IL2 secretion in Swiss Albino mouse splenocytes by ELISA relative to control; type: functional, Splenocyte
Splenocyte = assay: as §1; type: functional

Sequence of Mannosyl-oligosaccharide 1,2-alpha-mannosidase IA (Homo sapiens) (P33908 whole entry): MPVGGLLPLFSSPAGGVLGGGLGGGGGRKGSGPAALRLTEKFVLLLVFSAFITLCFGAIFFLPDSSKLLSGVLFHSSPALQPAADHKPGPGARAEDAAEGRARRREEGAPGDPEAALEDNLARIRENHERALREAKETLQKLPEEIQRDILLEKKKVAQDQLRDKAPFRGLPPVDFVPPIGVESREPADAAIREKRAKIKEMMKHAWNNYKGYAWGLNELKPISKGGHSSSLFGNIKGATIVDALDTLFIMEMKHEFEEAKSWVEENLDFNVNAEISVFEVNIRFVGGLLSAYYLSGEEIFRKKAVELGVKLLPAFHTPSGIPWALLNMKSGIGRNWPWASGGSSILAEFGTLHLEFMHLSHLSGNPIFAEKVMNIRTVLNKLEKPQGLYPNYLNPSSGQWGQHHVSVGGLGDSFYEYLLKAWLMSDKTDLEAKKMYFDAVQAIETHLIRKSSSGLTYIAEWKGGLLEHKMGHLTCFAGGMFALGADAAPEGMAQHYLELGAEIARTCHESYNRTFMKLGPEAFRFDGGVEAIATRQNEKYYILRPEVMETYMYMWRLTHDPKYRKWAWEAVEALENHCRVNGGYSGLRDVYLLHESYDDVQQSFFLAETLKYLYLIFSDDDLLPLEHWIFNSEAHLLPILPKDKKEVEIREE

OC[C@@H]1CCN2C[C@H](O)[C@@H](O)[C@H](O)[C@@H]12
Activity [1]: inactive | Activity [2]: inactive | Activity [3]: inactive | Activity (Homo sapiens [4]): inactive | Activity (Homo sapiens [5]): inactive | Activity [6]: 19% | Activity [7]: 61% | Activity [8]: 69% | Activity [9]: 41% | Activity [10]: 31% | Activity [11]: 47% | Ratio [12]: >9 | Activity [13]: 9.5% | Activity [14]: 3.3%

OC[C@H]1CCN2C[C@H](O)[C@@H](O)[C@H](O)[C@@H]12
Activity [1]: inactive | Activity [2]: inactive | Activity [3]: inactive | Activity (Homo sapiens [4]): inactive | Activity (Homo sapiens [5]): inactive | Activity [6]: 161% | Activity [7]: 109% | Activity [8]: 40% | Activity (Splenocyte): inactive | Activity [10]: 27% | Activity [11]: 20.6% | Ratio [12]: >5.5 | Activity [13]: 40.5% | Activity [14]: 6.6%
